Measured values taken from BigSolDB 2.1.

O=C1c2cccc(O)c2C(=O)c2c(O)cc(CO)cc21
solubility (mole fraction)
Details	278.15 K	283.15 K	288.15 K	293.15 K	298.15 K	303.15 K	308.15 K	313.15 K	318.15 K
in ethanol	1.72e-05	2.11e-05	2.45e-05	3.09e-05	3.74e-05	4.36e-05	5.05e-05	6.2e-05	7.56e-05
in methanol	1.66e-06	2.23e-06	3.1e-06	4.29e-06	5.39e-06	7.71e-06	1.13e-05	1.6e-05	2.33e-05
in n-butanol	4.59e-05	5.17e-05	6.49e-05	7.71e-05	9.05e-05	0.000102	0.000122	0.000137	0.00016
in n-pentanol	7e-05	8.33e-05	0.0001	0.000118	0.000138	0.000158	0.00018	0.000207	0.000245
in n-propanol	1.82e-05	2.49e-05	3.07e-05	4e-05	5.26e-05	6.56e-05	7.38e-05	9.21e-05	0.000116
in sec-butanol	1.62e-05	2.05e-05	2.71e-05	3.67e-05	4.52e-05	5.44e-05	6.76e-05	8.02e-05	9.79e-05
in water	2.2e-07	3.21e-07	4.43e-07	5.69e-07	8.07e-07	1.21e-06	1.64e-06	2.22e-06	2.82e-06
